Structures can show the parent of a compound that is named as a salt. Where two headings read alike, the source gives them in different places.
Columns and labels:
A375 (melanoma) = test: SRB cytotoxicity assay, A375; type: cell-based, human; settings: read-out: Cytotoxicity (EC50) A375
Description: (§1) Sulforhodamine (SRB) assays were performed to evaluate the cytotoxicity of the compounds. First, the cytotoxicity of the different rhodamines was determined; the results of these assays are compiled in Table 1 and Table 2 and depicted in Figure 1.
(§2) Experimental equipment: as previously described biological assays were performed as previously reported employing cell lines obtained from the Department of Oncology [Martin-Luther-University Halle Wittenberg; they were bought from ATCC [2, 4, 7]]. Rhodamine 101 B, as well as asiatic acid, were obtained from local vendors and used as received.
(§3) For the SRB assay and staining experiments: as previously described.

[1] = system: HT29 (colorectal carcinoma); test: SRB cytotoxicity assay, HT29; type: cell-based, human; settings: read-out: Cytotoxicity (EC50) HT29
Description: as §1, §2, §3

[2] = system: human tumor cell lines and non-malignant fibroblasts (NIH 3T3); test: SRB cytotoxicity assay, several cell lines stated together; type: cell-based; settings: all human tumor cell lines and non-malignant fibroblasts (NIH 3T3), limits of the assay
Description: as §1, §2, §3

[3] = system: A2780 (ovarian carcinoma); test: SRB cytotoxicity assay, A2780; type: cell-based, human; settings: read-out: Cytotoxicity (EC50) A2780
Description: as §1, §2, §3

[4] = system: NIH 3T3 (non-malignant fibroblasts, murine); test: SRB cytotoxicity assay, NIH 3T3; type: cell-based; settings: Table 1, 72 h of treatment, cut-off 30 μM
Description: as §1, §2, §3

[5] = system: MCF7 (breast adenocarcinoma); test: SRB cytotoxicity assay, MCF7; type: cell-based, human; settings: read-out: Cytotoxicity (EC50) MCF7
Description: as §1, §2, §3

[6] = system: HeLa (cervical adenocarcinoma); test: SRB cytotoxicity assay, HeLa; type: cell-based, human; settings: read-out: Cytotoxicity (EC50) HeLa
Description: as §1, §2, §3

[7] = SRB cytotoxicity assay, NIH 3T3; type: cell-based, murine; settings: mouse, NIH 3T3 non-malignant fibroblasts, Table 1, 72 h of treatment, cut-off 30 μM
Description: as §1, §2, §3

[8] = Table 1, SRB assay, 72 h of treatment, cut-off 30 μM

rhodamine B [Rh2, reference compound]
> 30 µM: EC50 (A375 (melanoma); [8]) | EC50 [1, 8] | EC50 [2] | EC50 [3, 8] | EC50 [4] | EC50 [5, 8] | EC50 [6, 8]

CCCCN(CCCC)c1ccc2c(-c3ccccc3C(=O)N3CCCN(C(=O)[C@]45CC[C@@H](C)[C@H](C)[C@H]4C4=CC[C@@H]6[C@@]7(C)C[C@@H](OC(C)=O)[C@H](OC(C)=O)[C@@](C)(COC(C)=O)C7CC[C@@]6(C)[C@]4(C)CC5)CCC3)c3ccc(=[N+](CCCC)CCCC)cc-3oc2c1 (stereo partly drawn) (as salt: chloride) [compound 19, (2α,3β,4α)-9-[2-[{4-(2α,3β,23-Tris(Acetyloxy)-urs-12-en-28-oyl)-1,5-Diazocan-1-Yl]Carbonyl}Phenyl]-3,6-Bis(Dibutylamino)-Xanthylium Chloride]
215 to 218 °C: melting point

CN(C)c1ccc2c(-c3ccccc3C(=O)O)c3ccc(=[N+](C)C)cc-3oc2c1 [Rh1, reference compound]
> 30 µM: EC50 (A375 (melanoma); Homo sapiens, A-375, 72 h) | EC50 ([1]; Homo sapiens, HT-29, 72 h) | EC50 ([2]; NIH3T3) | EC50 ([3]; Homo sapiens, A2780, 72 h) | EC50 at 72 h [7] | EC50 ([5]; Homo sapiens, MCF7, 72 h) | EC50 ([6]; Homo sapiens, HeLa, 72 h)

CCN(CC)c1ccc2c(-c3ccccc3C(=O)N3CCCN(C(=O)[C@]45CC[C@@H](C)[C@H](C)[C@H]4C4=CC[C@@H]6[C@@]7(C)C[C@@H](OC(C)=O)[C@H](OC(C)=O)[C@@](C)(COC(C)=O)C7CC[C@@]6(C)[C@]4(C)CC5)CCC3)c3ccc(=[N+](CC)CC)cc-3oc2c1 (stereo partly drawn) (as salt: chloride) [compound 17, (2α,3β,4α)-9-[2-[{4-(2α,3β,23-Tris(Acetyloxy)-urs-12-en-28-oyl)-1,5-Diazocan-1-Yl]Carbonyl}Phenyl]-3,6-Bis(Diethylamino)-Xanthylium Chloride]
222 to 227 °C: melting point

CC(=O)OC[C@@]1(C)C2CC[C@]3(C)[C@H](CC=C4[C@@H]5[C@@H](C)[C@H](C)CC[C@]5(C(=O)N5CCCN(C(=O)c6ccccc6-c6c7ccc(=[N+](C)C)cc-7oc7cc(N(C)C)ccc67)CCC5)CC[C@]43C)[C@@]2(C)C[C@@H](OC(C)=O)[C@@H]1OC(C)=O (stereo partly drawn) (as salt: chloride) [compound 16, (2α,3β,4α)-9-[2-[{4-(2α,3β,23-Tris(Acetyloxy)-urs-12-en-28-oyl)-1,5-Diazocan-1-Yl]Carbonyl}Phenyl]-3,6-Bis(Dimethylamino)-Xanthylium Chloride]
224 to 226 °C: melting point

Source: PMC10489938, “Developing an Amide-Spacered Triterpenoid Rhodamine Hybrid of Nano-Molar Cytotoxicity Combined with Excellent Tumor Cell/Non-Tumor Cell Selectivity” (Molecules, 2023)
